Assay: Brain outer cortex lipid fatty acid analysis, control vs 0.8% SDA
Format: in vivo, pigs
Method: About 1 g of frozen heart or brain tissue was pulverized in a stainless steel mortar and pestle maintained at −70° C. It was then suspended in 2 mL of ice-cold saline and sonicated on ice to thoroughly disperse the tissue. The lipids were extracted with methylene chloride:methanol. […] After extraction of the fatty acid methyl esters (FAME) with hexane:water, their composition was analyzed in a GC2010 (Shimadzu Scientific Instruments, Columbia, Md.) using a fused silica capillary columns (SP-2560, 100 m length, 0.25 mm internal diameter, 0.25 um film thickness, Supelco, Bellefonte, Pa.). A weighed external standard fatty acid (FA) mixture (GLC727, NuCheck Prep, Elysian, Minn.) was included to correct for potential differences in FA response factors. The response factor for palmitic acid of is assumed to be 1.0. Results were expressed as a percent of total identified FA (for composition endpoints) and as mg FA/g tissue. To further explore the effect of SDA on brain tissue composition, samples from the four control and four high dose (Treatment 5) animals were shaved to isolate the outer cortex. This was done to test the hypothesis that white, myelinated tissue found in the mid brain may not accumulate DHA as readily as gray matter in the cerebral cortex.

[1] = 0.8% SDA (Treatment 5), average

CC/C=C\C/C=C\C/C=C\C/C=C\CCCCC(=O)O [SDA, stearidonic acid]
C14:0, brain outer cortex [1]: 0.50%
C16:0, brain outer cortex [1]: 24.20%
C16:1n7, brain outer cortex [1]: 1.05%
C16:1n7t, brain outer cortex [1]: 0.28%
C18:0, brain outer cortex [1]: 16.53%
C18:1n9, brain outer cortex [1]: 19.14%
C18:1t, brain outer cortex [1]: 0.08%
C18:2n6, brain outer cortex [1]: 0.63%
C18:2n6t, brain outer cortex [1]: 0.23%
C18:3n3, brain outer cortex [1]: 0.15%
C18:3n6, brain outer cortex [1]: 0.02%
C18:4n3, brain outer cortex [1]: 0.02%
C20:1n9, brain outer cortex [1]: 0.23%
C20:2n6, brain outer cortex [1]: 0.06%
C20:3n6, brain outer cortex [1]: 0.35%
C20:4n6, brain outer cortex [1]: 11.48%
C20:5n3, brain outer cortex [1]: 0.15%
C22:4, brain outer cortex [1]: 2.90%
C22:5n3, brain outer cortex [1]: 0.98%
C22:5n6, brain outer cortex [1]: 3.58%
C22:6n3, brain outer cortex [1]: 17.38%
C24:0, brain outer cortex [1]: 0.02%
C24:1n9, brain outer cortex [1]: 0.05%
OMX-3 (Omega 3 Index, sum of EPA and DHA), brain outer cortex [1]: 17.53%
DHA and EPA in total lipid extract of the outer cortex region (Treatment 5 vs control): increase in DHA and EPA
